According to the supplement of paper PMC10307832:

How the values were obtained:
Experiment in all cases: relative viability (nuclei count vs DMSO), 5 days (fraction); higher = more cells survive
[1] = compound: CC1=C(C(=NN1)C)CC2=C(C3=C(S2)N(C(=O)N(C3=O)C)CC(C)C)C(=O)N4C[C@@H](CO4)O + Cc1nc(NC(=O)N2CCC[C@H]2C(N)=O)sc1-c1ccnc(C(C)(C)C(F)(F)F)c1 [Alpelisib] (partner 2 µM)
Summary of the method: (§1)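 Lung cancer cell lines were seeded in 1536-well plates and dosed by pin tool the next day, with either a single drug or a fixed anchor-drug dose combined with five library-drug doses (not always all listed) spaced in √10 steps. Five days later, one step fixed the cells and stained their nuclei (final 0.05% Triton X-100, 1% formaldehyde, 1 ug/ml Hoechst), and nuclei were counted on 4× images. Relative viability is the nuclei count in treated wells divided by the count in vehicle wells, and each value is the median of duplicate plates.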

IDH-C35 + Linsitinib = compound: Cc1ccccc1C(C(=O)NC1CCCCC1)N(C(=O)Cn1ccnc1C)c1cccc(F)c1 [IDH-C35] + C[C@]1(O)C[C@@H](c2nc(-c3ccc4ccc(-c5ccccc5)nc4c3)c3c(N)nccn32)C1 [Linsitinib] (partner 1 µM)
Summary of the method: as §1

IDH-C35 + Dasatinib = compound: Cc1ccccc1C(C(=O)NC1CCCCC1)N(C(=O)Cn1ccnc1C)c1cccc(F)c1 [IDH-C35] + Cc1nc(Nc2ncc(C(=O)Nc3c(C)cccc3Cl)s2)cc(N2CCN(CCO)CC2)n1 [Dasatinib] (partner 0.075 µM)
Summary of the method: as §1

[2] = compound: CC1=C(C(=NN1)C)CC2=C(C3=C(S2)N(C(=O)N(C3=O)C)CC(C)C)C(=O)N4C[C@@H](CO4)O + O=C(CCCCCCC(=O)Nc1ccccc1)NO [Vorinostat] (partner 1 µM)
Summary of the method: as §1

## UMC-11
[1]; first compound 0.0025 µM
  relative viability: 1.03
[1]; first compound 0.007906 µM
  relative viability: 0.897
[1]; first compound 0.025 µM
  relative viability: 0.75
[1]; first compound 0.07906 µM
  relative viability: 0.986
[1]; first compound 0.25 µM
  relative viability: 0.977
IDH-C35 + Linsitinib; first compound 0.08 µM
  relative viability: 0.942
IDH-C35 + Linsitinib; first compound 0.253 µM
  relative viability: 1.06
IDH-C35 + Linsitinib; first compound 0.8 µM
  relative viability: 1.04
IDH-C35 + Linsitinib; first compound 2.53 µM
  relative viability: 1.04
IDH-C35 + Linsitinib; first compound 8 µM
  relative viability: 0.971
IDH-C35 + Dasatinib; first compound 0.08 µM
  relative viability: 0.416
IDH-C35 + Dasatinib; first compound 0.253 µM
  relative viability: 0.472
IDH-C35 + Dasatinib; first compound 0.8 µM
  relative viability: 0.474
IDH-C35 + Dasatinib; first compound 2.53 µM
  relative viability: 0.532
IDH-C35 + Dasatinib; first compound 8 µM
  relative viability: 0.443
[2]; first compound 0.0025 µM
  relative viability: 0.41
[2]; first compound 0.007906 µM
  relative viability: 0.429
[2]; first compound 0.025 µM
  relative viability: 0.396
[2]; first compound 0.07906 µM
  relative viability: 0.464
[2]; first compound 0.25 µM
  relative viability: 0.424
